PubChem BioAssay (NCI)
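96-well plates; 48 h exposure; 5 concentrations. Endpoints by linear interpolation between flanking doses. Not reached: highest tested concentration assigned. TGI is the concentration that stops growth completely.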

Legend:
Experiment in all cases: DTP human tumour cell line panel, 48 h
EKVX NSCLC = system: EKVX NSCLC
KM12 colon = system: KM12 colon
OVCAR-4 ovarian = system: OVCAR-4 ovarian
MALME-3M melanoma = system: MALME-3M melanoma
A549 NSCLC = system: A549 NSCLC
OVCAR-5 ovarian = system: OVCAR-5 ovarian
RPMI-8226 leukemia = system: RPMI-8226 leukemia
TK-10 renal = system: TK-10 renal
OVCAR-8 ovarian = system: OVCAR-8 ovarian
MDA-MB-435 = system: MDA-MB-435
CCRF-CEM leukemia = system: CCRF-CEM leukemia
LOX IMVI melanoma = system: LOX IMVI melanoma
HOP-62 NSCLC = system: HOP-62 NSCLC
DU-145 prostate = system: DU-145 prostate
MCF7 breast = system: MCF7 breast
SR leukemia = system: SR leukemia
NCI-H23 lung = system: NCI-H23 lung
786-0 renal = system: 786-0 renal
NCI/ADR-RES ovarian = system: NCI/ADR-RES ovarian
MOLT-4 leukemia = system: MOLT-4 leukemia
HS 578T breast = system: HS 578T breast
SK-MEL-28 melanoma = system: SK-MEL-28 melanoma
ACHN renal = system: ACHN renal
HCC-2998 colon = system: HCC-2998 colon
COLO 205 colon = system: COLO 205 colon
SF-539 CNS = system: SF-539 CNS
BT-549 breast = system: BT-549 breast
SK-OV-3 ovarian = system: SK-OV-3 ovarian
NCI-H226 lung = system: NCI-H226 lung
NCI-H460 lung = system: NCI-H460 lung
SF-295 CNS = system: SF-295 CNS
HCT-15 colon = system: HCT-15 colon
OVCAR-3 ovarian = system: OVCAR-3 ovarian
K-562 leukemia = system: K-562 leukemia
MDA-MB-231 breast = system: MDA-MB-231 breast
MDA-N = system: MDA-N
PC-3 prostate = system: PC-3 prostate
UO-31 renal = system: UO-31 renal
UACC-62 melanoma = system: UACC-62 melanoma
SNB-19 CNS = system: SNB-19 CNS
U251 CNS = system: U251 CNS
SF-268 CNS = system: SF-268 CNS
HL-60(TB) leukemia = system: HL-60(TB) leukemia
SNB-75 CNS = system: SNB-75 CNS
A498 renal = system: A498 renal
SW-620 colon = system: SW-620 colon
T-47D breast = system: T-47D breast
UACC-257 melanoma = system: UACC-257 melanoma
HT29 colon = system: HT29 colon
SK-MEL-2 melanoma = system: SK-MEL-2 melanoma
SK-MEL-5 melanoma = system: SK-MEL-5 melanoma
M14 melanoma = system: M14 melanoma
SN12C renal = system: SN12C renal
HCT-116 colon = system: HCT-116 colon
NCI-H522 lung = system: NCI-H522 lung
CAKI-1 renal = system: CAKI-1 renal
IGROV1 ovarian = system: IGROV1 ovarian
RXF 393 renal = system: RXF 393 renal

Compound O=[N+]([O-])c1ccc(C(c2c[nH]c3ccccc23)c2c[nH]c3ccccc23)cc1 has a TGI (EKVX NSCLC) of 48.2 µM, a TGI (KM12 colon) of 28.1 µM and a TGI (OVCAR-4 ovarian) of 28.2 µM. It also gave a TGI (MALME-3M melanoma) of 37.6 µM, a TGI (A549 NSCLC) of 41.4 µM and a TGI (OVCAR-5 ovarian) of 54.4 µM. For the same compound, the TGI (RPMI-8226 leukemia) was 13.4 µM, the TGI (TK-10 renal) was 28.5 µM and the TGI (OVCAR-8 ovarian) was 33.2 µM. The TGI (MDA-MB-435) was 32.3 µM, the TGI (CCRF-CEM leukemia) was 1.17 µM and the TGI (LOX IMVI melanoma) was 41.2 µM. It also gave a TGI (HOP-62 NSCLC) of 30.3 µM, a TGI (DU-145 prostate) of 20.6 µM and a TGI (MCF7 breast) of 7.4 µM. For the same compound, the TGI (SR leukemia) was 22.5 µM, the TGI (NCI-H23 lung) was 21.4 µM and the TGI (786-0 renal) was 35.2 µM. For the same compound, the TGI (NCI/ADR-RES ovarian) was 27.5 µM, the TGI (MOLT-4 leukemia) was 40.9 µM and the TGI (HS 578T breast) was 51.1 µM. It also gave a TGI (SK-MEL-28 melanoma) of 36.1 µM, a TGI (ACHN renal) of 21.5 µM and a TGI (HCC-2998 colon) of 39.3 µM. For the same compound, the TGI (COLO 205 colon) was 21.8 µM, the TGI (SF-539 CNS) was 30.6 µM and the TGI (BT-549 breast) was 14.3 µM. For the same compound, the TGI (SK-OV-3 ovarian) was 33.1 µM, the TGI (NCI-H226 lung) was 32.1 µM and the TGI (NCI-H460 lung) was 12.6 µM. For the same compound, the TGI (SF-295 CNS) was > 100 µM, the TGI (HCT-15 colon) was 29.7 µM and the TGI (OVCAR-3 ovarian) was 8.31 µM. The TGI (K-562 leukemia) was 48 µM, the TGI (MDA-MB-231 breast) was 29.3 µM and the TGI (MDA-N) was 27.5 µM. It also gave a TGI (PC-3 prostate) of 28.4 µM, a TGI (UO-31 renal) of 22.9 µM and a TGI (UACC-62 melanoma) of 26.5 µM. For the same compound, the TGI (SNB-19 CNS) was 35.8 µM, the TGI (U251 CNS) was 45.3 µM and the TGI (SF-268 CNS) was 22.5 µM. For the same compound, the TGI (HL-60(TB) leukemia) was 49 µM, the TGI (SNB-75 CNS) was 18.5 µM and the TGI (A498 renal) was 30.1 µM. For the same compound, the TGI (SW-620 colon) was 27.9 µM, the TGI (T-47D breast) was 7.07 µM and the TGI (UACC-257 melanoma) was 9.79 µM. The TGI (HT29 colon) was 31.8 µM, the TGI (SK-MEL-2 melanoma) was 20.1 µM and the TGI (SK-MEL-5 melanoma) was 20.2 µM. It also gave a TGI (M14 melanoma) of 33.2 µM and a TGI (SN12C renal) of 35.2 µM.
With COc1ccc(N[C@H](CS(=O)c2ccc(C)cc2)c2ccc(F)cc2)cc1 (stereo partly specified) the TGI (EKVX NSCLC) was > 100 µM, the TGI (KM12 colon) was > 100 µM and the TGI (OVCAR-4 ovarian) was > 100 µM. For the same compound, the TGI (MALME-3M melanoma) was > 100 µM, the TGI (HCT-116 colon) was > 100 µM and the TGI (A549 NSCLC) was > 100 µM. For the same compound, the TGI (OVCAR-5 ovarian) was > 100 µM, the TGI (RPMI-8226 leukemia) was > 100 µM and the TGI (TK-10 renal) was > 100 µM. For the same compound, the TGI (OVCAR-8 ovarian) was > 100 µM, the TGI (MDA-MB-435) was > 100 µM and the TGI (CCRF-CEM leukemia) was > 100 µM. The TGI (LOX IMVI melanoma) was > 100 µM, the TGI (HOP-62 NSCLC) was > 100 µM and the TGI (DU-145 prostate) was > 100 µM. For the same compound, the TGI (MCF7 breast) was > 100 µM, the TGI (NCI-H23 lung) was > 100 µM and the TGI (786-0 renal) was > 100 µM. For the same compound, the TGI (NCI/ADR-RES ovarian) was > 100 µM, the TGI (MOLT-4 leukemia) was > 100 µM and the TGI (SK-MEL-28 melanoma) was > 100 µM. The TGI (ACHN renal) was > 100 µM, the TGI (HCC-2998 colon) was > 100 µM and the TGI (COLO 205 colon) was > 100 µM. The TGI (SF-539 CNS) was 56.7 µM, the TGI (BT-549 breast) was > 100 µM and the TGI (SK-OV-3 ovarian) was > 100 µM. For the same compound, the TGI (NCI-H522 lung) was > 100 µM, the TGI (NCI-H460 lung) was > 100 µM and the TGI (SF-295 CNS) was > 100 µM. For the same compound, the TGI (HCT-15 colon) was > 100 µM, the TGI (CAKI-1 renal) was > 100 µM and the TGI (IGROV1 ovarian) was 47.4 µM. The TGI (OVCAR-3 ovarian) was > 100 µM, the TGI (K-562 leukemia) was > 100 µM and the TGI (MDA-MB-231 breast) was > 100 µM. For the same compound, the TGI (MDA-N) was > 100 µM, the TGI (PC-3 prostate) was > 100 µM and the TGI (UO-31 renal) was > 100 µM. For the same compound, the TGI (UACC-62 melanoma) was > 100 µM, the TGI (SNB-19 CNS) was > 100 µM and the TGI (U251 CNS) was > 100 µM. The TGI (SF-268 CNS) was 94.5 µM, the TGI (SNB-75 CNS) was 81.7 µM and the TGI (SW-620 colon) was > 100 µM. For the same compound, the TGI (T-47D breast) was > 100 µM, the TGI (UACC-257 melanoma) was > 100 µM and the TGI (HT29 colon) was > 100 µM. For the same compound, the TGI (SK-MEL-2 melanoma) was > 100 µM, the TGI (SK-MEL-5 melanoma) was > 100 µM and the TGI (M14 melanoma) was > 100 µM. For the same compound, the TGI (SN12C renal) was > 100 µM and the TGI (RXF 393 renal) was > 100 µM.
